This note sets out measurements from patent US7138108B2, “Photoprotective UV-screening compositions comprising (phenylsulfonyl) acrylonitrile-substituted silanes/siloxanes” (L'Oreal, priority 2002, dated 2006).

The series can be described thus: UV absorption spectrum in ethanol (UV-A screening power). It counts as physicochemical. The following applies: UV (EtOH); for E1% / εmax: at λmax.

Each structure is given as a SMILES string.

As for `C=C(C)COc1ccc(C=C(C#N)S(=O)(=O)c2ccccc2)cc1` [2-benzenesulfonyl-3-[4-(2-methylallyloxy)phenyl]acrylonitrile], the λmax was 345 nm and the E1% is on record as 736.

For the compound `C[Si](C)(C)CCCOc1ccc(/C=C(\C#N)S(=O)(=O)c2ccccc2)cc1` [Example 1, 2-benzenesulfonyl-3-[4-(3-trimethylsilanylpropoxy)phenyl]acrylonitrile], the λmax is on record as 347 nm, the E1% is 813 and the εmax is on record as 32 500.

With `CC(COc1ccc(/C=C(\C#N)S(=O)(=O)c2ccccc2)cc1)C[Si](C)(O[Si](C)(C)C)O[Si](C)(C)C` (centres unmarked) [Example 2, [4-[2-methyl-3-[1,3,3,3-tetramethyl-1-[(trimethylsilyl)oxy]disiloxanyl]propyloxy]phenyl]-2-(benzenesulfonyl)acrylonitrile], the λmax was 348 nm, the E1% came to 632 and the εmax is 35 500.
